Experimental findings from PubChem BioAssay AID743428 (The Scripps Research Institute Molecular Screening Center, 2014) are described below.

As a reminder, the IC50 is the point on the concentration scale where inhibition reaches its midpoint.

The target of this assay is Sphingosine 1-phosphate receptor 2 (Homo sapiens) (UniProt O95136). The experiment in a line: S1P2 receptor antagonists, late-stage follow-up, counter-screen for S1PR3 antagonist project, cell-based, FRET, dose response (AID 743428). The note with it: S1P2-expressing cells, FRET reporter, antagonist counterscreen. For orientation: The purpose of a counterscreen is to sort out artefacts and off-target activity.
Chain of Sphingosine 1-phosphate receptor 2 (Homo sapiens) (O95136 whole entry, looked up): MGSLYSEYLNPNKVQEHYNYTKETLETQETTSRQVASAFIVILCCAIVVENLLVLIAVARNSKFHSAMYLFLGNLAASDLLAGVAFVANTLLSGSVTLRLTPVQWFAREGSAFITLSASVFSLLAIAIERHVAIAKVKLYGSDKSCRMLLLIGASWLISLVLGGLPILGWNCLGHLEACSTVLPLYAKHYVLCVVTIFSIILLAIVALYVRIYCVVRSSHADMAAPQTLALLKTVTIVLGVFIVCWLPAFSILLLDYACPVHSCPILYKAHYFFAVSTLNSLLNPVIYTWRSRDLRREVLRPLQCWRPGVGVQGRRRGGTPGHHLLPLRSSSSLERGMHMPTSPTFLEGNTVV

Calls of active or inactive are those of the source. The rule behind the calls is not given here.

In the case of `CCc1ccc(C(NC(=O)c2cccc(Cl)c2)c2nc(-c3ccccc3)no2)cc1` (configuration not stated), the IC50 is > 50 µM (inactive). Take `O=C(NC(c1ccc(Cl)c(Cl)c1)c1nc(-c2ccccc2)no1)c1ccccc1` (configuration not stated): the IC50 was > 50 µM (inactive). The same measure for `O=C(NC(c1ccc(Cl)c(Cl)c1)c1nc(-c2ccccc2)no1)c1cccc(Cl)c1` (configuration not stated): > 50 µM (inactive); for `Cc1ccc(C(=O)NC(c2ccccc2)c2nc(-c3ccccc3)no2)cc1` (configuration not stated): > 50 µM (inactive); for `O=C(NC(c1ccc(Br)cc1)c1nc(-c2ccccc2)no1)c1ccc(Cl)c(Cl)c1` (configuration not stated): > 50 µM (inactive). The same measure for `O=C(NC(c1ccccc1)c1nc(-c2ccccc2)no1)c1ccc(Cl)cc1` (configuration not stated): > 50 µM (inactive); for `N#Cc1ccc(C(=O)NC(c2ccc(Cl)c(Cl)c2)c2nc(-c3ccccc3)no2)cc1` (configuration not stated): > 50 µM (inactive).

In the case of `COc1ccc(C(=O)NC(c2ccccc2)c2nc(-c3ccccc3)no2)cc1` (configuration not stated), the IC50 is > 50 µM (inactive). The value for `O=C(NC(c1nc(-c2ccccc2)no1)C1CCOCC1)c1ccc(Cl)c(Cl)c1` (configuration not stated) was > 50 µM (inactive). The same measure for `O=C(NC(c1ccc(Cl)cc1)c1nc(-c2cccc(Cl)c2)no1)c1cccc(Cl)c1` (configuration not stated): > 50 µM (inactive); for `O=C(NC(c1ccc(Cl)cc1)c1nc(-c2ccccc2)no1)c1ccc(Cl)c(Cl)c1` (configuration not stated): > 50 µM (inactive); for `Cc1ccc(C(NC(=O)c2cccc(Cl)c2)c2nc(-c3ccccc3)no2)cc1` (configuration not stated): > 50 µM (inactive). Consider `O=C(NC(c1ccc(Cl)c(Cl)c1)c1nc(-c2ccccc2)no1)c1ccc(Cl)c(Cl)c1` (configuration not stated), for which the IC50 was > 50 µM (inactive).

As for `O=C(NC(c1ccc(Cl)cc1)c1nc(-c2ccccc2)no1)c1cccc(Br)c1` (configuration not stated), the IC50 was > 50 µM (inactive). The value for `O=C(NC(Cc1ccccc1)c1nc(-c2ccccc2)no1)c1cccc(Cl)c1` (configuration not stated) was “inactive”. On to `O=C(NC(c1ccc(Cl)c(Cl)c1)c1nc(-c2ccccc2)no1)c1ccc(Cl)cc1` (configuration not stated), for which the IC50 was > 50 µM (inactive). The same measure for `O=C(NC(c1cccc(Cl)c1)c1nc(-c2ccccc2)no1)c1cc(Cl)cc(Cl)c1` (configuration not stated): > 50 µM (inactive); for `O=C(NC(c1cccc(Cl)c1)c1nc(-c2ccccc2)no1)c1cccc(Cl)c1` (configuration not stated): > 50 µM (inactive). The same measure for `O=C(NC(c1ccccc1)c1nc(-c2ccccc2)no1)c1cccc(Cl)n1` (configuration not stated): > 50 µM (inactive).

On to `O=C(c1cccc(Cl)c1)N(CCO)C(c1ccc(Cl)c(Cl)c1)c1nc(-c2ccccc2)no1` (configuration not stated), for which the IC50 entry was “inactive”. The value for `O=C(NC(c1ccc(Cl)cc1)c1nc(-c2ccccn2)no1)c1cccc(Cl)c1` (configuration not stated) was > 50 µM (inactive); that for `O=C(NC(c1nc(-c2ccccc2)no1)C1CCCCC1)c1ccc(Cl)c(Cl)c1` (configuration not stated) was > 50 µM (inactive).

Consider `O=C(NC(c1ccc(Cl)cc1)c1nc(-c2ccccc2)no1)c1ccc(Cl)c(Br)c1` (configuration not stated), for which the IC50 was > 50 µM (inactive).

In the case of `O=C(NC(c1ccccc1)c1nc(-c2ccccc2)no1)c1cccc(Br)c1` (configuration not stated), the IC50 was > 50 µM (inactive). The same measure for `O=C(NC(c1ccc(Cl)cc1)c1nc(-c2ccccc2)no1)c1cccc(Cl)c1` (configuration not stated): > 50 µM (inactive); for `O=C(NC(c1ccccc1)c1nc(-c2ccccc2)no1)c1cccc(Cl)c1` (configuration not stated): > 50 µM (inactive).

In the case of `O=C(NC(c1cccc(Cl)c1)c1nc(-c2ccccc2)no1)c1ccc(Cl)c(Cl)c1` (configuration not stated), the IC50 was > 50 µM (inactive).
